Experimental data published in US20260130933A1, “PHARMACEUTICAL COMPOSITION FOR PREVENTION OR TREATMENT OF NEPHROPATHY AND/OR DIABETES MELLITUS, COMPRISING ENAVOGLIFLOZIN” (DAEWOONG PHARMACEUTICAL CO., LTD., priority 2022, published 2026).

Assay: Example 3: phase 3 trial, enavogliflozin 0.3 mg vs dapagliflozin 10 mg once a day for 24 weeks added to metformin and gemigliptin in patients with type 2 diabetes (same endpoints, rescue drug)
Assay type: in vivo, human
Description: 1) when Metformin (≥1,000 mg/Day) was Administered at a Constant Dose for at Least 8 Weeks Prior to Pre-Visit (Pre-Screening) • Metformin (≥1,000 mg/day) and gemigliptin (50 mg/day) were co-administered during the 8-week stabilization period. […] 4) when Metformin (≥1,000 mg/Day) and Gemigliptin (50 mg/Day) were Co-Administered at Constant Doses for at Least 8 Weeks Prior to Pre-Visit (Prescreening) • Without a separate stabilization period, Pre-visit (pre-screening) was Visit 1 (screening).
Subjects who met the inclusion/exclusion criteria continued to receive metformin and gemigliptin while receiving a placebo of the clinical trial drug in a single-blind (subject-blinded) state for a 2-week run-in period.
Here, the randomized subjects were stratified according to the administration therapy (co-administration with two or less agents (one or two agents) or three or more agents) of a conventional hypoglycemic agent (before washout of another hypoglycemic agent) within 24 weeks prior to obtaining written informed consent and by an HbA1c value (<8% or ≥8%) at Visit 1 (screening) measured in the central laboratory.
The randomized subjects were administered two tablets of the clinical trial drug corresponding to each administration group once a day, and then visited the institution at weeks 6, 12, 18, and 24 during the 24-week administration period to conduct efficacy and safety assessments. In addition, during the clinical trial period, they were instructed to exercise regularly and control their diet without changing their daily life patterns.
• 1) Change in HbA1c at week 24 after administration of clinical trial drug compared to Visit 2 (randomization)
• 1) Change in HbA1c at each time point of weeks 6, 12, and 18 after administration of clinical trial drug compared to Visit 2 (randomization) • 2) Change in FPG at each time point of weeks 6, 12, 18, and 24 after administration of clinical trial drug compared to Visit 2 (randomization) • 3) Proportion of subjects achieving HbA1c<7% at each time point of weeks 6, 12, 18, and 24 after administration of clinical trial drug • 4) Proportion of subjects achieving HbA1c<6.5% at each time point of weeks 6, 12, 18, and 24 after administration of clinical trial drug • 5) Proportion of subjects achieving therapeutic response (HbA1c change (HbA1c at Visit 2—HbA1c at each evaluation time point)>0.5% or HbA1c<7% at each evaluation time point compared to Visit 2 (randomization)) at each time point of weeks 6, 12, 18, and 24 after administration of clinical trial drug • 6) Proportion of subjects achieving therapeutic response (HbA1c change (HbA1c at Visit 2—HbA1c at each evaluation time point)>0.7% or HbA1c<7% at each evaluation time point compared to Visit 2 (randomization)) at each time point of weeks 6, 12, 18, and 24 after administration of clinical trial drug • 7) Proportion of subjects achieving therapeutic response (HbA1c change (HbA1c at Visit 2—HbA1c at each evaluation time point)>1% or HbA1c<7% at each evaluation time point compared to Visit 2 (randomization)) at each time point of weeks 6, 12, 18, and 24 after administration of clinical trial drug

[1] = week 18, per-protocol set, enavogliflozin 0.3 mg, dapagliflozin 10 mg
[2] = week 24, modified per-protocol set 1, enavogliflozin 0.3 mg vs dapagliflozin 10 mg
[3] = week 24, modified per-protocol set 1, enavogliflozin 0.3 mg, dapagliflozin 10 mg
[4] = week 24, modified per-protocol set 2

OC[C@H]1O[C@@H](c2cc(Cc3ccc(C4CC4)cc3)c(Cl)c3c2CCO3)[C@H](O)[C@@H](O)[C@@H]1O [Enavogliflozin, (2S,3R,4R,5S,6R)-2-(7-chloro-6 (4-cyclopropylbenzyl)-2,3-dihydrobenzofuran-4-yl)-6-(hydroxymethyl)tetrahydro-2H-pyran-3,4,5-triol]
HbA1c, Median [1]: 6.87%
Subjects achieving HbA1c target of <6.5%, (%) [1]: 14.53%
Subjects achieving HbA1c target of <7%, % [1]: 63.25%
body weight, Median [1]: 65.40 kg
Subjects achieving therapeutic glycemic response 2, % (week 18, per-protocol set, response 2 = HbA1c change >0.7% or HbA1c <7%, enavogliflozin 0.3 mg, dapagliflozin 10 mg): 77.78%
Subjects achieving therapeutic glycemic response 3, % (week 18, per-protocol set, response 3 = HbA1c change >1% or HbA1c <7%, enavogliflozin 0.3 mg, dapagliflozin 10 mg): 74.36%
FPG change from baseline, LS mean (SE) (week 24): −27.21(1.81) mg/dL
HDL-C change from baseline, LS mean (SE) (week 24): 4.32(0.71) mg/dL
HOMA-IR change from baseline, LS mean (SE) (week 24): −1.09(0.11)
HOMA-β change from baseline, LS mean (SE) (week 24): 1.09(4.79)
HbA1c change from baseline, LS mean (SE) (week 24): −0.92(0.05) % p
HbA1c change from baseline, Mean (SD) (week 24): −0.93(0.70) % p
LDL-C change from baseline, LS mean (SE) (week 24): 0.85(1.89) mg/dL
UACR change from baseline, LS mean (SE) (week 24): −15.34 (3.93) g/kg
UGCR change from baseline, LS mean (SE) (week 24): 60.22(2.31) mg/mg
adiponectin change from baseline, LS mean (SE) (week 24): 1.42(0.35) μg/mL
body weight change from baseline, LS mean (SE) (week 24): −3.15(0.23) kg
diastolic blood pressure change from baseline, LS mean (SE) (week 24): −2.55(0.72) mmHg
fasting C-peptide change from baseline, LS mean (SE) (week 24): −0.09(0.02) ng/ml
leptin change from baseline, LS mean (SE) (week 24): −1.46(0.52) ng/mL
systolic blood pressure change from baseline, LS mean (SE) (week 24): −4.49(0.96) mmHg
total cholesterol change from baseline, LS mean (SE) (week 24): 4.48(2.07) mg/dL
triglyceride change from baseline, LS mean (SE) (week 24): −8.22(4.01) mg/dL
Odds ratio for administering the rescue drug (week 24, FAS, vs dapagliflozin): 0.36
FPG change from baseline, LS mean difference (week 24, vs dapagliflozin): -3.49 mg/dL
HDL-C change from baseline, LS mean difference (week 24, vs dapagliflozin): -0.08 mg/dL
HOMA-IR change from baseline, LS mean difference (week 24, vs dapagliflozin): −0.16
HOMA-β change from baseline, LS mean difference (week 24, vs dapagliflozin): −4.69
HbA1c change from baseline, LS mean difference (week 24, vs dapagliflozin): −0.06 % p
LDL-C change from baseline, LS mean difference (week 24, vs dapagliflozin): -2.27 mg/dL
Odds ratio for achieving HbA1c<6.5% (week 24, vs dapagliflozin): 1.27
Odds ratio for achieving HbA1c<7% (week 24, vs dapagliflozin): 1.17
Odds ratio, therapeutic response (HbA1c change >0.5% or HbA1c<7%) (week 24, vs dapagliflozin): 1.15
Odds ratio, therapeutic response (HbA1c change >0.7% or HbA1c<7%) (week 24, vs dapagliflozin): 0.98
Odds ratio, therapeutic response (HbA1c change >1% or HbA1c<7%) (week 24, vs dapagliflozin): 1.22
UACR change from baseline, LS mean difference (week 24, vs dapagliflozin): 0.79 g/kg
UGCR change from baseline, LS mean difference (week 24, vs dapagliflozin): 16.71 mg/mg
adiponectin change from baseline, LS mean difference (week 24, vs dapagliflozin): 0.49 µg/mL
body weight change from baseline, LS mean difference (week 24, vs dapagliflozin): -0.15 kg
diastolic blood pressure change from baseline, LS mean difference (week 24, vs dapagliflozin): −0.66 mmHg
fasting C-peptide change from baseline, LS mean difference (week 24, vs dapagliflozin): -0.01 ng/mL
leptin change from baseline, LS mean difference (week 24, vs dapagliflozin): -0.89 ng/mL
systolic blood pressure change from baseline, LS mean difference (week 24, vs dapagliflozin): −0.22 mmHg
total cholesterol change from baseline, LS mean difference (week 24, vs dapagliflozin): -1.09 mg/dL
triglyceride change from baseline, LS mean difference (week 24, vs dapagliflozin): 0.56 mg/dL
Change from baseline in HDL-C, ANCOVA LS mean difference [2]: -0.08 mg/dL
Change from baseline in LDL-C, ANCOVA LS mean difference [2]: -2.27 mg/dL
Change from baseline in total cholesterol, ANCOVA LS mean difference [2]: -1.09 mg/dL
Change from baseline in triglycerides, ANCOVA LS mean difference [2]: 0.56 mg/dL
Change from baseline in HDL-C, ANCOVA LS mean [3]: 4.32 mg/dL
Change from baseline in HDL-C, Mean [3]: 4.53 mg/dL
Change from baseline in HDL-C, Median [3]: 4.00 mg/dL
Change from baseline in LDL-C, ANCOVA LS mean [3]: 0.85 mg/dL
Change from baseline in LDL-C, Mean [3]: 1.75 mg/dL
Change from baseline in LDL-C, Median [3]: 0.50 mg/dL
Change from baseline in total cholesterol, ANCOVA LS mean [3]: 4.48 mg/dL
Change from baseline in total cholesterol, Mean [3]: 5.59 mg/dL
Change from baseline in total cholesterol, Median [3]: 5.50 mg/dL
Change from baseline in triglycerides, ANCOVA LS mean [3]: -8.22 mg/dL
Change from baseline in triglycerides, Mean [3]: -6.05 mg/dL
Change from baseline in triglycerides, Median [3]: -1.00 mg/dL
Fasting HDL-C, Mean [3]: 50.58 mg/dL
Fasting HDL-C, Median [3]: 48.50 mg/dL
Fasting LDL-C, Mean [3]: 73.15 mg/dL
Fasting LDL-C, Median [3]: 70.50 mg/dL
Fasting total cholesterol, Mean [3]: 140.06 mg/dL
Fasting triglycerides, Mean [3]: 113.01 mg/dL
Fasting triglycerides, Median [3]: 101.00 mg/dL
fasting Total cholesterol, Median [3]: 134.00 mg/dL
Change from baseline in diastolic blood pressure, ANCOVA LS mean [4]: −2.55 mmHg
Change from baseline in diastolic blood pressure, LS mean difference (enavogliflozin − dapagliflozin) [4]: −0.66 mmHg
Change from baseline in diastolic blood pressure, Mean [4]: −3.19 mmHg
